According to article PMC8946696, “27-Hydroxycholesterol Binds GPER and Induces Progression of Estrogen Receptor-Negative Breast Cancer” (Cancers, 2022):
pIC50: −log10 of the molar value.

Target: T1, G Protein-Coupled Estrogen Receptor (GPER, GPR30) (Homo sapiens, UniProt Q99527)
T1 construct: gene GPER1; plasma membranes of HEK293 cells stably transfected with GPER
Experiment: [3H]E2 competitive radioligand binding to plasma membranes of GPER-transfected HEK293 cells

T1 sequence (Q99527 whole entry): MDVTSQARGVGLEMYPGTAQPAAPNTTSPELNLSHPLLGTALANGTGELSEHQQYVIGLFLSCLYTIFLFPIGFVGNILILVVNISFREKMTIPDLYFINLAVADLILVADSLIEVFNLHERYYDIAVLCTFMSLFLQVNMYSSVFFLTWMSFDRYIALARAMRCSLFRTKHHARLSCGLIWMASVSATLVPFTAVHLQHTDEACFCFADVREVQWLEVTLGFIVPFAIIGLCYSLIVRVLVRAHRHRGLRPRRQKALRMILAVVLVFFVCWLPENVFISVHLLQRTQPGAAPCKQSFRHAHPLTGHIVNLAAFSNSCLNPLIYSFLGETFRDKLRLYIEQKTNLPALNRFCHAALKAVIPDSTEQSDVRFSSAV

C[C@@H](CO)CCC[C@@H](C)[C@H]1CC[C@H]2[C@@H]3CC=C4C[C@@H](O)CC[C@]4(C)[C@H]3CC[C@]12C [27HC, 27-hydroxycholesterol]
pIC50: 6.10 to 6.30
